Reference: patent US20140296143A1, “Angiotensin-(1-7) As A Chemoprevention Agent” (Wake Forest Innovations, priority 2008, published 2014)

Legend:
[1] = test system: SK-MES-1 lung cancer cells; assay type: cell-based, human
Procedure: Unless otherwise stated, cells were grown in DMEM with 10% fetal bovine serum (FBS), 100 μg/mL penicillin and 100 units/mL streptomycin in a humidified 37° C. incubator gassed with 5% CO2 and 95% room air. Cells were grown to subconfluence in either 24-well cluster plates or 100 mm dishes and made quiescent by treatment for 48 h with serum-depleted growth media, prior to the experiments outlined below to measure cell growth (^3H-thymidine incorporation), cell signaling or apoptosis.
Subsequently, the cell monolayer was washed with cold phosphate-buffered saline (PBS; 50 mM NaPO4, 120 mM NaCl, pH=7.2). The adherent cells were precipitated with cold 10% TCA (4° C. for 30 min) and dissolved in 0.2% SDS in 0.1 N NaOH. Incorporated ^3H-thymidine was determined by liquid scintillation spectrometry, as previously described (Freeman, E. J. et al., Hypertension, 1996, 28:104-108). Growth inhibition was defined as a reduction in the amount of ^3H-thymidine incorporation as compared to the mitogen-stimulated controls.

[2] = test system: poly(ADP-ribose) polymerase (PARP); assay: Cleaved PARP (caspase-3 cleavage product) in serum-stimulated SK-LU-1 cells; assay type: cell-based, human; settings: SK-LU-1, 10 nM, 4 to 8 hour treatment
Procedure: Proteins were separated electrophoretically on SDS polyacrylamide gels, transferred to polyvinyl membranes, and incubated with primary antibodies to proteins of interest. Appropriate horseradish peroxidase (HRP)-conjugated second antibodies were added and immunoreactive products visualized using the enhanced chemoluminescence reagents from Amersham. The density of each immunoreactive product was quantified using the MCID imaging system. Antibodies to proteins that participate in cell signaling, apopotosis, and regulation of the cell cycle are commercially available from a variety of sources.
Since caspase-3 is activated during apoptosis, an increase in the generation of its […] can be a measure of apoptosis.

[3] = test system: chorioallantoic membrane (CAM); assay: Chorioallantoic membrane (CAM) assay of neovascularization; assay type: in vivo, chicken
Procedure: Chicken eggs were incubated for four days in constant humidity at 37° C. […] The extent of neovascularization was quantified by counting branch points, as illustrated in FIG. 14 showing about a 50% reduction in branch points. No difference was found in the number of branch points between the two groups prior to treatment with Ang-(1-7).

COX-2 = COX-2 protein (Western blot) and mRNA (RT real-time PCR) in A549 cells; assay type: cell-based, human
Procedure: For reverse-transcriptase real-time PCR, RNA was isolated from cells or tissue, using the TRIzol reagent (GIBCO Invitrogen Corp., Carlsbad, Calif.), as directed by the manufacturer. The RNA concentration and integrity were assessed using an Agilent 2100 Bioanalyzer with an RNA 6000 nano LabChip (Agilent Technologies, Palo Alto, Calif.). Approximately 1 μg of total RNA was reverse transcribed using avian myeloblastosis virus reverse transcriptase (RT) in a 20 μL mixture containing deoxyribonucleotides, random hexamers and RNase inhibitor in RT buffer. Heating the RT reaction product at 95° C. terminated the reaction. For real-time polymerase chain reaction (PCR), 2 μL of the resultant cDNA was added to TaqMan Universal PCR Master Mix (Applied Biosystems, Foster City, Calif.) with a gene-specific primer/probe set (Applied Biosystems, Foster City, Calif.) and amplification was performed on an ABI 7000 Sequence Detection System. […] The results were quantified as Ct values, where Ct is defined as the threshold cycle of PCR at which amplified product is first detected, and expressed as the ratio of target/control (Relative Gene Expression).
Quiescent A549 lung cancer cells or tumor tissue cut into approximately 1-2 mm^2 size pieces were homogenized in phosphate-buffered saline (PBS; 50 mM NaPO4, pH=7.2, 100 mM NaCl). […] The protein concentration was measured by a modification of the Lowry method. […]

AT1 angiotensin receptor = settings: cited from earlier work
[4] = Plasma Ang-(1-7) level after intravenous infusion in mice; assay type: in vivo, mouse
[5] = test system: MAP kinase kinase 5 (MEK5); assay: MEK5 expression in SK-LU-1 cells by RT-PCR and Western analysis; assay type: cell-based, human; settings: SK-LU-1, 1% serum, 10 nM, 4 and 8 h
Procedure: RNA, isolated from cells or tissue, using the TRIzol reagent (GIBCO Invitrogen, Carlsbad, Calif.), was subjected to reverse transcriptase/real-time polymerase chain reaction as previously described (Tallant et al., Am. J. Physiol. Heart Circ. Physiol., 2005, 289:1560-1566). All reactions were performed in triplicate and 18S ribosomal RNA, amplified using the TaqMan Ribosomal RNA Control Kit (Applied Biosystems), served as an internal control. The results were quantified as Ct values, where Ct is defined as the threshold cycle of PCR at which amplified product is first detected, and defined as relative gene expression (the ratio of target/control). For RT-PCR, total RNA was isolated using the Atlas Pure Total RNA Labeling System (Clontech Laboratories, Inc). The RNA concentration was quantified by UV spectroscopy and any degradation assessed by ethidium bromide staining intensity of 28S and 18S ribosomal RNA following agarose gel electrophoresis. […] Following PCR, the amplification products were separated by polyacrylamide gel electrophoresis, visualized by autoradiography, and analyzed using the MCID imaging system.
Proteins were separated electrophoretically on SDS polyacrylamide gels, transferred to polyvinyl membranes, and incubated with primary antibodies to proteins of interest. […] The density of each immunoreactive product was quantified using the MCID imaging system. […]

[6] = adjuvant therapy for cytopenia during chemotherapy; Rodgers et al., 2005; cited from earlier work

With `CC[C@H](C)[C@H](NC(=O)[C@H](Cc1ccc(O)cc1)NC(=O)[C@@H](NC(=O)[C@H](CCCNC(=N)N)NC(=O)[C@@H](N)CC(=O)O)C(C)C)C(=O)N[C@@H](Cc1c[nH]cn1)C(=O)N1CCC[C@H]1C(=O)O` [Ang-(1-7), Asp-Arg-Val-Tyr-Ile-His-Pro] the IC50 ([1]; 48 h) was 0.4 nM, the “^3H-thymidine incorporation over time of treatment” value ([1]; SK-MES-1, 1% FBS, daily addition of 100 nM) was “progressively reduced” and the “amount of cleaved PARP” value [2] was “increase”. The “neovascularization, branch points” value ([3]; 10 nM, 48 hour incubation, n=4, control 58.0±3.6 (n=3)) was 29.5±3.6 branch points, the “reduction in branch points” value ([3]; 100 nM, 2-day incubation, FIG. 14) was ~50% and the “COX-2 mRNA” value (COX-2; 100 nM, 2, 4 and 8 h) was “significant reduction”. The COX-2 protein (COX-2; 100 nM, 8-h treatment) was “marked decrease”, the “IC50 at the AT1 angiotensin receptor” value (AT1 angiotensin receptor; Tallant et al., 1999) was “micromolar range” and the “competition at the AT1 receptor” value (AT1 angiotensin receptor; literature) was “poor competitor”. The “increase of plasma concentration over saline-infused animals” value ([4]; 24 μg/kg/h intravenous infusion, Ki-ras^G12C mice) was 5 fold, the “plasma concentration of the heptapeptide” value ([4]; 24 μg/kg/h intravenous infusion, Ki-ras^G12C mice, 84 days, n=8, saline 38.7±11.45) was 0.20132 ± 0.099 ng/mL and the level at 2016 h ([4]; Ki-ras^G12C, mouse, plasma, iv, 24 ug/kg/h, read-out: plasma concentration of the heptapeptide) was 0.201 ± 0.099 ng/mL. The level at time molar at 1728 h ([4]; mouse, plasma, 24 ug/kg/h, 24 μg/kg/h intravenous, 72 days of infusion into mice, n=8, from 0.043±0.013) was 0.224 ± 0.11 nM, the “MEK5 mRNA and protein” value [5] was “reduced” and the “adverse side effects in patients” value [6] was “no adverse side effects”.
